Experiments:
EL4 cells = experiment: Viability of EL4 cells after inhibitor treatment; assay type: cell-based; conditions: EL4 cells in HSF, Brefeldin A 10 μg/ml for 24 hours
Method: EL4CM24 was heat inactivated at 42° C. for 1 hour prior to being used in the transmigration assays described above. […] EL4CM24 was incubated with hydrated proteinase K agarose (Sigma-Aldrich; St. Louis, Mo.) at 1 mg/ml for 1 hour at 37° C. in a 5% CO2 humidified incubator then filtered through a 0.2 μm pore-size filter prior to being used in the transmigration and intraperitoneal assays. Murine T-cells were incubated with pertussis toxin (Sigma-Aldrich; St. Louis, Mo.) at 100 ng/ml for 1 hour at 37° C. in a 5% CO2 humidified incubator, prior to being used in the transmigration assays. EL4CM24 was incubated with radiciol (Sigma-Aldrich; St. Louis, Mo.) for two hours at room temperature at concentrations 0.1 μg/ml and 7.3 μg/ml. The transmigration was then carried out using the EL4CM24 mixture. As a control, transmigration assays were also carried out using gradients of HSF media supplemented with 7.3 μg/ml of radicol or using EL4CM24-radicicol mixtures from which excess radiciol had been removed using 5 kDa size exclusion Centricon Ultrafree filters (Millipore; Billerica, Mass.). EL4 cells in HSF were also exposed to Geldanamycin at 1.2 μM or 200 nM prior to use of the CM in transmigration assays. EL4 cells in HSF were also exposed to Brefeldin A at 10 μg/ml overnight for a full 24 hours prior to use of the EL4CM24 in transmigration assays. […]

murine T-cells = experiment: Quantitative transmigration assay (ChemoTx), negative gradients of EL4 conditioned media; assay type: cell-based, C57BL/6 mice; conditions: compared with untreated EL4CM24
Method: C57BL/6 mice (4 to 8 weeks old) (Jackson Laboratories; Bar Harbor Me.) were euthanized, and dissection of superficial cervical, axillary, brachial and inguinal lymph nodes was performed under sterile conditions. Dissected lymph nodes were then physically disaggregated and a cell suspension generated. The cell suspension was then enriched for T cells by depletion of non-T cells using MACS Pan T cell isolation kit for mouse leukocytes (Miltenyi Biotec; Auburn, Calif.).
Quantitative transmigration assays were carried out as described previously. In brief, ChemoTx chemotaxis 30 μl well plates with 3 μm pore size filters (Neuro Probe; Gaithersburg, Md.) were used. 20,000 murine T-cells were loaded in the upper chamber of the ChemoTx system and subjected to positive, negative and uniform gradients of EL4CM24 in a standard checkerboard analysis of cell migration. The peak concentrations used in each gradient were 1 in 2, 1 in 10, and 1 in 100 dilutions of EL4CM24 with 10.5 media; Isocove's supplemented with 0.5% fetal calf serum, 50 units/ml Penicillin, 50 μg/ml Streptomycin and 292 μg/ml L-Glutamine (Mediatech; Herndon, Va.). […] The chemotactic index was calculated as the quotient of the average number of cells migrating in response to EL4CM24 and the average number of cells migrating in response to media alone. […]

[1] = system: T-cell infiltration into the peritoneal cavity; experiment: Intraperitoneal injection of conditioned media and analysis of lymphocyte infiltration; parameters: species or system BALB/c-DO11 mice; conditions: after immunoprecipitation of HSP90α from EL-4 CM with a monoclonal antibody; immune challenge in vivo
Method: BALB/c-DO11 mice (kindly provided by Dr. Iacomini, Massachusetts General Hospital) were primed by subcutaneous injection with 100 μl of ovalbumin (ICN Biomedicals; Costa Mesa, Calif.) dissolved in Freund's complete adjuvant (Pierce Biotechnology; Rockford, Ill.) at a concentration 1 mg/ml. Three days later, mice were injected intraperitoneally with 250 μl of ovalbumin dissolved in sterile water at concentration a 0.4 mg/ml. 24 hours later, experimental mice were injected intraperitoneally with 250 μl of EL4CM24, while control mice were injected intraperitoneally with 250 μl of HSF media or protease treated EL4CM24. 24 hours later, cells were extracted from the intraperitoneal space by lavage with 5 ml of cold phosphate buffered saline (Mediatech; Herndon, Va.) and aspiration with a 10 ml syringe and 21-gauge needle. Peritoneal lavage cells were counted on a hemocytometer and then immuno-stained for anti-CD3, CD4, CD8 and TCR-kj-OVA lymphocyte expression (BD BioSciences; San Jose, Calif.) and anti-CD4 (Caltag Laboratories; Burlingame, Calif.) with antibodies labelled with Percp and PE (phytoerythrin) known fluorophor labels. T-cells expressing CD3+, CD3+ CD4+, CD3+ CD8+, CD3+ TCR-kj-OVA were then determined by FACS analysis.

Compound	level of migration of lymphocytes (murine T-cells)	further results
C[C@H]1CCC/C=C/[C@@H]2C[C@H](O)C[C@H]2[C@H](O)/C=C/C(=O)O1 [Brefeldin A]		viability (EL4 cells): Greater than 65%
C[C@@H]1C[C@H]2O[C@@H]2/C=C\C=C\C(=O)Cc2c(Cl)c(O)cc(O)c2C(=O)O1 [radicicol]	not significantly reduced	
HSP90α: heat shock protein in EL-4 conditioned medium, removed by immunoprecipitation with a monoclonal antibody		reduction in the fugetactic effect of the CM on T-cells infiltrating the peritoneal cavity [1]: four-fold reduction
pertussis toxin	significantly reduced	

From patent US7745578B2, “Fugetactic proteins, compositions and methods of use” (The General Hospital Corporation, priority 2003, dated 2010)
